Data as given in ChEMBL document CHEMBL4184215, “Lysosomes-targeting imaging and anticancer properties of novel bis-naphthalimide derivatives” (Bioorg Med Chem Lett, 2018).
The source made the active and inactive calls. The rule behind the calls is not given here.

What was measured:
[1] = tested on: HeLa; experiment: Cell cycle arrest in human HeLa cells assessed as accumulation at S phase at 2.5 uM incubated for 12 hrs by propidium iodide staining based flow cytometry (reference value: 27.8%); format: functional
[2] = tested on: Calf thymus DNA; experiment: Binding affinity to calf thymus DNA assessed as increase in compound fluorescence intensity at 1 x 10^-5 M by fluorescence spectroscopy; format: nucleic-acid assay; details: Bos taurus
[3] = tested on: Calf thymus DNA; experiment: Binding affinity to calf thymus DNA assessed as induction of bathochromic shift of maximum absorption peaks at 1 x 10^-5 M by UV-Visible spectroscopy (reference value: 426 nanometer); format: nucleic-acid assay; details: Bos taurus
[4] = tested on: Calf thymus DNA; experiment: Binding affinity to calf thymus DNA assessed as change in melting temperature at 5 uM; format: nucleic-acid assay; details: Bos taurus
[5] = tested on: Calf thymus DNA; experiment: Binding affinity to calf thymus DNA at 1 x 10^-5 M by UV-Visible spectroscopy; format: nucleic-acid assay; details: Bos taurus
[6] = tested on: HeLa; experiment: Cell cycle arrest in human HeLa cells assessed as accumulation at S phase at 7.5 uM incubated for 12 hrs by propidium iodide staining based flow cytometry (reference value: 27.8%); format: functional
[7] = tested on: HeLa; experiment: Cytotoxicity against human HeLa cells assessed as reduction in cell viability incubated for 48 hrs by MTT assay; format: functional, cell-based
[8] = tested on: Calf thymus DNA; experiment: Binding affinity to calf thymus DNA assessed as reduction in compound self absorption intensity at 1 x 10^-5 M by UV-Visible spectroscopy; format: nucleic-acid assay; details: Bos taurus
[9] = tested on: HeLa; experiment: Cell cycle arrest in human HeLa cells assessed as accumulation at G2 phase at 5 uM incubated for 12 hrs by propidium iodide staining based flow cytometry (reference value: 7%); format: functional
[10] = Drug accumulation in lysosome of human HeLa cells at 5 uM incubated for 1 hr by lysososmal tracker DND-99 based confocal microscopy; format: ADME, subcellular
[11] = tested on: Calf thymus DNA; experiment: Binding affinity to calf thymus DNA assessed as induction of maximum emission band shift at 1 x 10^-5 M by fluorescence spectroscopy; format: nucleic-acid assay; details: Bos taurus
[12] = tested on: HeLa; experiment: Cell cycle arrest in human HeLa cells assessed as accumulation at G2 phase at 7.5 uM incubated for 12 hrs by propidium iodide staining based flow cytometry (reference value: 7%); format: functional
[13] = tested on: HeLa; experiment: Cell cycle arrest in human HeLa cells assessed as accumulation at G1 phase at 5 uM incubated for 12 hrs by propidium iodide staining based flow cytometry (reference value: 65.2%); format: functional
[14] = tested on: A549; experiment: Cytotoxicity against human A549 cells assessed as reduction in cell viability incubated for 48 hrs by MTT assay; format: functional, cell-based; details: A549, 48 h
[15] = tested on: HeLa; experiment: Cell cycle arrest in human HeLa cells assessed as accumulation at G2 phase at 2.5 uM incubated for 12 hrs by propidium iodide staining based flow cytometry (reference value: 7%); format: functional
[16] = tested on: MGC-803; experiment: Cytotoxicity against human MGC803 cells assessed as reduction in cell viability incubated for 48 hrs by MTT assay; format: functional, cell-based; details: MGC-803, 48 h
[17] = tested on: Calf thymus DNA; experiment: Binding affinity to calf thymus DNA assessed as induction of ICD signal changes at 8 uM to 40 uM by CD spectroscopy; format: nucleic-acid assay; details: Bos taurus
[18] = tested on: MCF7; experiment: Cytotoxicity against human MCF7 cells assessed as reduction in cell viability incubated for 48 hrs by MTT assay; format: functional, cell-based; details: MCF7, 48 h
[19] = tested on: HeLa; experiment: Cell cycle arrest in human HeLa cells assessed as accumulation at S phase at 5 uM incubated for 12 hrs by propidium iodide staining based flow cytometry (reference value: 27.8%); format: functional
[20] = tested on: Calf thymus DNA; experiment: Binding affinity to calf thymus DNA assessed as increase in intensity of positive band at 275 nm at 8 uM to 40 uM by CD spectroscopy; format: nucleic-acid assay; details: Bos taurus
[21] = tested on: HeLa; experiment: Cell cycle arrest in human HeLa cells assessed as accumulation at G1 phase at 2.5 uM incubated for 12 hrs by propidium iodide staining based flow cytometry (reference value: 65.2%); format: functional
[22] = tested on: HeLa; experiment: Cell cycle arrest in human HeLa cells assessed as accumulation at G1 phase at 7.5 uM incubated for 12 hrs by propidium iodide staining based flow cytometry (reference value: 65.2%); format: functional
[23] = tested on: Calf thymus DNA; experiment: Binding affinity to calf thymus DNA assessed as increase in […] shift at 1 x 10^-5 M by fluorescence spectroscopy (reference value: 542 nanometer); format: nucleic-acid assay; details: Bos taurus
[24] = tested on: Calf thymus DNA; experiment: Binding affinity to calf thymus DNA assessed as increase in compound fluorescence intensity at 1 x 10^-5 M up to 1.4 x 10^-4M DNA by fluorescence spectroscopy; format: nucleic-acid assay; details: Bos taurus

SMILES	IC50 [7]	IC50 [14]	IC50 [16]	IC50 [18]	further results
Cl.Cl.Cl.Cl.O=C1c2cccc3c(N4CCC(O)CC4)ccc(c23)C(=O)N1CCCNCCNCCCN1C(=O)c2cccc3c(N4CCC(O)CC4)ccc(c23)C1=O	2.89 µM	46.2 µM	0.6 µM	37.1 µM	Activity [1]: 40.8%; Activity [2]: Active; Activity [3]: 445 nm; ΔTm [4]: 8.2 °C; K [5]: 1.8 ×10⁵ /M; Activity [6]: 50.4%; Activity [8]: Active; Activity [9]: 9.9%; Drug uptake [10]: Active; Activity [11]: inactive; Activity [12]: 5.3%; Activity [13]: 44.9%; Activity [15]: 11.7%; Activity [17]: Active; Activity [19]: 45.2%; Activity [20]: Active; Activity [21]: 47.5%; Activity [22]: 44.3%
O=C1c2cccc3c(N4CCC[C@@H]4CO)ccc(c23)C(=O)N1CCCNCCNCCCN1C(=O)c2cccc3c(N4CCC[C@@H]4CO)ccc(c23)C1=O	89.2 µM	72.6 µM	6.41 µM	93.5 µM	–
O=C1c2cccc3c(N4CC[C@H](O)C4)ccc(c23)C(=O)N1CCCNCCNCCCN1C(=O)c2cccc3c(N4CC[C@H](O)C4)ccc(c23)C1=O	35.4 µM	83.6 µM	5.96 µM	142 µM	–
Cl.Cl.Cl.Cl.O=C1c2cccc3c(N4CCN(CCO)CC4)ccc(c23)C(=O)N1CCCNCCNCCCN1C(=O)c2cccc3c(N4CCN(CCO)CC4)ccc(c23)C1=O	2.73 µM	2.59 µM	1.6 µM	20 µM	Activity [1]: 40.2%; Activity [3]: inactive; ΔTm [4]: 14.3 °C; K [5]: 2.6 ×10⁵ /M; Activity [6]: 53.87%; Activity [8]: Active; Activity [9]: 4.3%; Drug uptake [10]: Active; Activity [12]: 3.7%; Activity [13]: 46%; Activity [15]: 10.9%; Activity [17]: Active; Activity [19]: 49.7%; Activity [23]: 528 nm; Activity [24]: Active; Activity [20]: Active; Activity [21]: 48.9%; Activity [22]: 42.6%
O=C1c2cccc3c(N4CCC(CO)CC4)ccc(c23)C(=O)N1CCCNCCNCCCN1C(=O)c2cccc3c(N4CCC(CO)CC4)ccc(c23)C1=O	4.03 µM	14 µM	2.03 µM	22.7 µM	–
O=C1c2cccc3c(N4CCC[C@H]4CO)ccc(c23)C(=O)N1CCCNCCNCCCN1C(=O)c2cccc3c(N4CCC[C@H]4CO)ccc(c23)C1=O	85.2 µM	472 µM	35.1 µM	147 µM	–
O=C1c2cccc3c(N4CC[C@@H](O)C4)ccc(c23)C(=O)N1CCCNCCNCCCN1C(=O)c2cccc3c(N4CC[C@@H](O)C4)ccc(c23)C1=O	45.4 µM	23 µM	9.41 µM	74.6 µM	–
O=C1c2cccc3c(N4CCC(CCO)CC4)ccc(c23)C(=O)N1CCCNCCNCCCN1C(=O)c2cccc3c(N4CCC(CCO)CC4)ccc(c23)C1=O	6.88 µM	43.5 µM	90.4 µM	11.1 µM	–
CN(C)CCN1C(=O)c2cccc3cc(N)cc(c23)C1=O [AMONAFIDE]	3.41 µM	2 µM	3.23 µM	6.79 µM	–
